# Read-outs that look alike come from different tables or passages of the source.
# Experiments:
# [1] = Protocol: (§1) The 3xTg-AD mice and WT mice (female, 9 months old) used for the present study were habituated to handling for 14 days prior to the experiment. Female mice were used because the female 3xTg-AD mice develop behavioral deficits faster than the male mice. The selection of the age of 9 months was because the 3xTg-AD mice at this age show neurogenic and neuroplastic deficits but no NFTs or amyloid plaques and are cognitively impaired. Intranasal delivery was carried out manually without anesthesia while the mouse head was restrained in a supine position with the neck in extension, as described. A total of 1.75 U/17.5 μl insulin or 0.9% saline (Veh 1) was delivered over both nares alternatively using a 10 μl Eppendorf pipetter. The mouse was held for an additional 5-10 seconds to ensure the fluid was inhaled. […] All mice were treated with insulin or, as a control, saline daily for 7 consecutive days. […] The brains were removed immediately, and the rostral halves (separated coronally at the bregma level) of the mouse brains were dissected, flash frozen in dry ice, and stored at −80° C. for biochemical analyses at a later date.
# Hypothermia is known to be a major factor underlying anesthesia-induced tau hyperphosphorylation. Therefore, the rectal temperature of the mice was determined.
# [2] = test system: tau protein kinases (GSK-3β, MAPK/ERK, cdk5, CaMKII, JNK); assay type: in vivo
# Protocol: as §1
# Mouse brain tissue was homogenized in pre-chilled buffer containing 50 mM Tris-HCl (pH 7.4), 50 mM GlcNAc, 20 μM UDP, 2.0 mM EGTA, 2 mM Na3VO4, 50 mM NaF, 20 mM Glycero-phosphate, 0.5 mM AEBSF, 10 μg/ml aprotinin, 10 μg/ml leupeptin, and 4 μg/ml pepstatin A. Protein concentrations of the homogenates were determined by using modified Lowery method. The samples were resolved in 10% or 12.5% SDS-PAGE and electro-transferred onto Immobilon-P membrane (Millipore, Bedford, Mass., USA). The blots were then probed with primary antibody and developed with the corresponding horseradish peroxidase-conjugated secondary antibody and ECL kit (Pierce, Rockford, Ill.). Densitometrical quantification of protein bands in Western blots were analyzed by using the TINA software (Raytest IsotopenmeBgerate GmbH, Straubenhardt, Germany).
# Besides PP2A, tau phosphorylation is also regulated by several protein kinases. The levels of several tau protein kinases have been reported to be altered after anesthesia. We therefore determined the levels of the total and the activated form of several tau protein kinases, including glycogen synthase kinase-3β (GSK-3β), mitogen-activated protein kinase/extracellular signal-regulated kinase (MAPK/ERK), cyclin-dependent kinase 5 (cdk5), calcium/calmodulin-dependent protein kinase II (CaMKII), and c-Jun N-terminal kinase (JNK).
# tau phosphorylation = assay: Western blot of tau phosphorylation in brain homogenates of 3xTg-AD mice; assay type: in vivo; settings: intranasal insulin 1.75 U daily 7 days before propofol, 30 min following propofol
# Protocol: (§2) The 3xTg-AD mice and WT mice (female, 9 months old) used for the present study were habituated to handling for 14 days prior to the experiment. Female mice were used because the female 3xTg-AD mice develop behavioral deficits faster than the male mice. The selection of the age of 9 months was because the 3xTg-AD mice at this age show neurogenic and neuroplastic deficits but no NFTs or amyloid plaques and are cognitively impaired. Intranasal delivery was carried out manually without anesthesia while the mouse head was restrained in a supine position with the neck in extension, as described. A total of 1.75 U/17.5 μl insulin or 0.9% saline (Veh 1) was delivered over both nares alternatively using a 10 μl Eppendorf pipetter. The mouse was held for an additional 5-10 seconds to ensure the fluid was inhaled. […]
# (§3) Mouse brain tissue was homogenized in pre-chilled buffer containing 50 mM Tris-HCl (pH 7.4), 50 mM GlcNAc, 20 μM UDP, 2.0 mM EGTA, 2 mM Na3VO4, 50 mM NaF, 20 mM Glycero-phosphate, 0.5 mM AEBSF, 10 μg/ml aprotinin, 10 μg/ml leupeptin, and 4 μg/ml pepstatin A. Protein concentrations of the homogenates were determined by using modified Lowery method. […] Densitometrical quantification of protein bands in Western blots were analyzed by using the TINA software (Raytest IsotopenmeBgerate GmbH, Straubenhardt, Germany).
# phosphorylated tau = assay: Immunohistochemical staining of brain sections with 12E8 and PHF-1; assay type: in vivo, 3xTg-AD mice; settings: frontal cortex; 30 min after propofol; 3xTg-ins/prop vs 3xTg-veh1/prop
# Protocol: as §1
# brain insulin signaling = assay: Western blot of brain insulin signaling components; assay type: in vivo, 3xTg-AD mice; settings: intranasal insulin 7 days prior to propofol; 3xTg-ins/prop vs 3xTg-veh1/prop
# Protocol: as §2, §3
# PP2A = assay: Western blot of PP2A-C level, methylation and Tyr307 phosphorylation in brain; assay type: in vivo, 3xTg-AD mice; settings: intranasal insulin 7 days before propofol
# Protocol: as §2, §3
# old wild type mice = assay: Morris water maze (MWM) test after anesthesia
# Protocol: This paradigm of anesthesia is similar to that used clinically for surgical patents in the U.S. The cognitive function of the mice was assessed starting on the next day by using the Morris water maze (MWM) test, a widely used cognitive test for rodents.
# Probe testing was carried out on the following day after four-day training and was used to evaluate the retrieval of spatial memory.
# [3] = insulin treatment before anesthesia vs anesthesia alone
Molecule,average rectal temperature ([1]; two hours after propofol injection (250 mg/kg i.p.)) [°C],"average rectal temperature ([1]; within 30 min after propofol injection (250 mg/kg i.p.), from around 38.2° C.) [°C]",GSK-3β and ERK ([2]; after anesthesia with propofol),JNK ([2]; after anesthesia with propofol),a few other tau kinases ([2]; after anesthesia with propofol),inhibitory Ser9 phosphorylation of GSK-3β ([2]; after anesthesia with propofol),"phosphorylation level of tau at Thr212, Ser262/356 (12E8 sites), Ser396/404 (PHF-1 sites), Ser409 (tau phosphorylation; 3xTg-ins/prop vs 3xTg-veh1/prop)","phosphorylation level of tau at Thr181, Ser199, Thr205, Thr231, Ser422 (tau phosphorylation; insulin-treated vs untreated)","body temperature, insulin-treated vs untreated mice ([1]; during propofol anesthesia, intranasal insulin 7 days before)","number of strongly stained neurons (12E8, PHF-1) (phosphorylated tau)","levels of IRβ, IGF-1Rβ, IRβ pY1150/1151, IRS1 pS307, PI3K p85 pY458, PI3K p55 pY199, PDK1, AKT and AKT pT308 (brain insulin signaling)",net PP2A methylation (PP2A; after normalization with the PP2A-C level),"level and methylation of PP2A in the mouse brain (PP2A; normalized with GAPDH, vs 3xTg-veh1/prop)","CDK5, CaMKII pT286 and JNK pT184/pY185 ([2]; intranasal insulin treatment, propofol-treated mouse brains)","swimming speeds (old wild type mice; among the four groups (control, anesthesia, insulin+anesthesia, insulin))",number of platform location crossing during probe test (old wild type mice; [3]),time to reach the platform location during probe test (old wild type mice; [3]),spatial learning (old wild type mice; insulin treatment to control mice without anesthesia),"learning performance (time to reach the platform, four training days) (old wild type mice; intranasal insulin 1.75 IU/mouse/day for 7 days before one-time anesthesia)"
CC(C)c1cccc(C(C)C)c1O [propofol],25.6,28.6,inhibition,activation,moderate alterations,dramatic increase,,,,,,,,,,,,,
Insulin,,,,,,,significantly lower,the decreases did not reach statistical significance,no difference,markedly reduced,up-regulated,not increased,significant increase,mild to moderate reductions,not different,increased,decreased,did not affect spatial learning significantly,as good as control mice

# From patent US9603905B2, “Intranasal insulin administration for the minimization of anesthesia-induced memory loss” (priority 2014, dated 2017)
